ChEMBL document CHEMBL3885881, “DrugMatrix”

Organism: Rattus norvegicus
Assay: DrugMatrix - Regimen: Daily Repeat
Format: toxicity, organism-based, Sprague-Dawley
Set-up: regimen Daily Repeat, gender Male, age 6-8 weeks
Conditions: in vivo, po, route oral GAVAGE, vehicle .5 % CMC; for BASOPHIL / EOSINOPHIL / ERYTHROCYTE COUNT / HEMATOCRIT / HEMOGLOBIN / LEUKOCYTE COUNT / LYMPHOCYTE / MEAN CORPUSCULAR HEMOGLOBIN / MEAN CORPUSCULAR HEMOGLOBIN CONCENTRATION / MEAN CORPUSCULAR VOLUME / MONOCYTE / NEUTROPHIL / PLATELET COUNT: tissue Blood; for ALANINE AMINOTRANSFERASE / ALBUMIN / ALKALINE PHOSPHATASE / ASPARTATE AMINOTRANSFERASE / BLOOD UREA NITROGEN / CHLORIDE / CHOLESTEROL / CREATINE PHOSPHOKINASE / CREATININE / GLUCOSE / PHOSPHORUS / POTASSIUM / SODIUM / TOTAL BILIRUBIN / TOTAL PROTEIN: tissue Plasma
[1] = 0 mg/kg, 72 h, dose level Control, time 3 day
[2] = 0 mg/kg, 120 h, dose level Control, time 5 day
[3] = 36 mg/kg, 72 h, dose level Low, time 3 day
[4] = 36 mg/kg, 120 h, dose level Low, time 5 day

CCCCc1oc2ccccc2c1C(=O)c1cc(I)c(OCCN(CC)CC)c(I)c1 [AMIODARONE]
BASOPHIL [1]: 0%
EOSINOPHIL [1]: 0%
ERYTHROCYTE COUNT [1]: 6.19 x10E6/uL
HEMATOCRIT [1]: 36.94%
HEMOGLOBIN [1]: 14.58 G/DL
LEUKOCYTE COUNT [1]: 11.54 x10E3/uL
LYMPHOCYTE [1]: 84.8%
MEAN CORPUSCULAR HEMOGLOBIN [1]: 23.58 pg
MEAN CORPUSCULAR HEMOGLOBIN CONCENTRATION [1]: 39.44 G/DL
MEAN CORPUSCULAR VOLUME [1]: 59.76 fL
MONOCYTE [1]: 1.4%
NEUTROPHIL [1]: 13.8%
PLATELET COUNT [1]: 1068.8 x10E3/uL
ALANINE AMINOTRANSFERASE [1]: 38.17 u/L
ALBUMIN [1]: 3.88 G/DL
ALKALINE PHOSPHATASE [1]: 391.33 u/L
ASPARTATE AMINOTRANSFERASE [1]: 69.83 u/L
BLOOD UREA NITROGEN [1]: 15 mg/dL
CHLORIDE [1]: 104.17 MEQ/L
CHOLESTEROL [1]: 72.17 mg/dL
CREATINE PHOSPHOKINASE [1]: 174.33 u/L
CREATININE [1]: 0.58 mg/dL
GLUCOSE [1]: 192.67 mg/dL
PHOSPHORUS [1]: 10.52 mg/dL
POTASSIUM [1]: 6.8 MEQ/L
SODIUM [1]: 149.67 MEQ/L
TOTAL BILIRUBIN [1]: 0.78 mg/dL
TOTAL PROTEIN [1]: 6.28 G/DL
BASOPHIL [2]: 0%
EOSINOPHIL [2]: 0.17%
ERYTHROCYTE COUNT [2]: 6.72 x10E6/uL
HEMATOCRIT [2]: 40.02%
HEMOGLOBIN [2]: 15.83 G/DL
LEUKOCYTE COUNT [2]: 9.5 x10E3/uL
LYMPHOCYTE [2]: 87.17%
MEAN CORPUSCULAR HEMOGLOBIN [2]: 23.57 pg
MEAN CORPUSCULAR HEMOGLOBIN CONCENTRATION [2]: 39.62 G/DL
MEAN CORPUSCULAR VOLUME [2]: 59.55 fL
MONOCYTE [2]: 1.67%
NEUTROPHIL [2]: 11%
PLATELET COUNT [2]: 1053.67 x10E3/uL
ALANINE AMINOTRANSFERASE [2]: 26.33 u/L
ALBUMIN [2]: 4.02 G/DL
ALKALINE PHOSPHATASE [2]: 316.67 u/L
ASPARTATE AMINOTRANSFERASE [2]: 61.33 u/L
BLOOD UREA NITROGEN [2]: 18.67 mg/dL
CHLORIDE [2]: 108 MEQ/L
CHOLESTEROL [2]: 65.17 mg/dL
CREATINE PHOSPHOKINASE [2]: 161.17 u/L
CREATININE [2]: 0.75 mg/dL
GLUCOSE [2]: 177.33 mg/dL
PHOSPHORUS [2]: 9.72 mg/dL
POTASSIUM [2]: 6.18 MEQ/L
SODIUM [2]: 150.5 MEQ/L
TOTAL BILIRUBIN [2]: 0.68 mg/dL
TOTAL PROTEIN [2]: 6.55 G/DL
BASOPHIL [3]: 0%
EOSINOPHIL [3]: 0%
ERYTHROCYTE COUNT [3]: 6.18 x10E6/uL
HEMATOCRIT [3]: 36.8%
HEMOGLOBIN [3]: 14.4 G/DL
LEUKOCYTE COUNT [3]: 12.87 x10E3/uL
LYMPHOCYTE [3]: 77%
MEAN CORPUSCULAR HEMOGLOBIN [3]: 23.4 pg
MEAN CORPUSCULAR HEMOGLOBIN CONCENTRATION [3]: 39.13 G/DL
MEAN CORPUSCULAR VOLUME [3]: 59.8 fL
MONOCYTE [3]: 2.67%
NEUTROPHIL [3]: 20.33%
PLATELET COUNT [3]: 1095 x10E3/uL
ALANINE AMINOTRANSFERASE [3]: 33 u/L
ALBUMIN [3]: 3.77 G/DL
ALKALINE PHOSPHATASE [3]: 365.33 u/L
ASPARTATE AMINOTRANSFERASE [3]: 56.33 u/L
BLOOD UREA NITROGEN [3]: 15 mg/dL
CHLORIDE [3]: 103.67 MEQ/L
CHOLESTEROL [3]: 84.33 mg/dL
CREATINE PHOSPHOKINASE [3]: 134.67 u/L
CREATININE [3]: 0.7 mg/dL
GLUCOSE [3]: 159.33 mg/dL
PHOSPHORUS [3]: 11.13 mg/dL
POTASSIUM [3]: 6.63 MEQ/L
SODIUM [3]: 148.67 MEQ/L
TOTAL BILIRUBIN [3]: 0.7 mg/dL
TOTAL PROTEIN [3]: 6.13 G/DL
BASOPHIL [4]: 0%
EOSINOPHIL [4]: 0.33%
ERYTHROCYTE COUNT [4]: 6.73 x10E6/uL
HEMATOCRIT [4]: 39.47%
HEMOGLOBIN [4]: 15.6 G/DL
LEUKOCYTE COUNT [4]: 11.67 x10E3/uL
LYMPHOCYTE [4]: 86.33%
MEAN CORPUSCULAR HEMOGLOBIN [4]: 23.27 pg
MEAN CORPUSCULAR HEMOGLOBIN CONCENTRATION [4]: 39.63 G/DL
MEAN CORPUSCULAR VOLUME [4]: 58.73 fL
MONOCYTE [4]: 2%
NEUTROPHIL [4]: 11.33%
PLATELET COUNT [4]: 1213.67 x10E3/uL
ALANINE AMINOTRANSFERASE [4]: 26 u/L
ALBUMIN [4]: 3.93 G/DL
ALKALINE PHOSPHATASE [4]: 392.33 u/L
ASPARTATE AMINOTRANSFERASE [4]: 57.67 u/L
BLOOD UREA NITROGEN [4]: 14.67 mg/dL
CHLORIDE [4]: 106.67 MEQ/L
CHOLESTEROL [4]: 88 mg/dL
CREATINE PHOSPHOKINASE [4]: 148.33 u/L
CREATININE [4]: 0.7 mg/dL
GLUCOSE [4]: 154.67 mg/dL
PHOSPHORUS [4]: 10.83 mg/dL
POTASSIUM [4]: 6.67 MEQ/L
SODIUM [4]: 150.33 MEQ/L
TOTAL BILIRUBIN [4]: 0.93 mg/dL
TOTAL PROTEIN [4]: 6.6 G/DL
